Source: ChEMBL document CHEMBL2440080, “Synthesis and biological evaluation of novel acylhydrazone derivatives as potential antitumor agents” (Bioorg Med Chem, 2013)

Legend:
HOP-62 = test: Cytotoxicity against human HOP62 cells after 48 hrs by sulforhodamine B assay; format: functional; details: HOP-62, 48 h
IGROV-1 = test: Cytotoxicity against human IGROV1 cells after 48 hrs by sulforhodamine B assay; format: functional; details: IGROV-1, 48 h
SNB-75 = test: Cytotoxicity against human SNB75 cells after 48 hrs by sulforhodamine B assay; format: functional; details: SNB-75, 48 h
T47D = test: Cytotoxicity against human T47D cells after 48 hrs by sulforhodamine B assay; format: functional
UACC-62 = test: Cytotoxicity against human UACC62 cells after 48 hrs by sulforhodamine B assay; format: functional; details: UACC-62, 48 h
NCI-H460 = test: Cytotoxicity against human NCI-H460 cells after 48 hrs by sulforhodamine B assay; format: functional; details: NCI-H460, 48 h
KM12 = test: Cytotoxicity against human KM12 cells after 48 hrs by sulforhodamine B assay; format: functional; details: KM12, 48 h
TK-10 = test: Cytotoxicity against human TK10 cells after 48 hrs by sulforhodamine B assay; format: functional; details: TK-10, 48 h
SR = test: Cytotoxicity against human SR cells after 48 hrs by sulforhodamine B assay; format: functional
DU-145 = test: Cytotoxicity against human DU145 cells after 48 hrs by sulforhodamine B assay; format: functional; details: DU-145, 48 h
LOX IMVI = test: Cytotoxicity against human LOXIMVI cells after 48 hrs by sulforhodamine B assay; format: functional
RXF 393 = test: Cytotoxicity against human RXF393 cells after 48 hrs by sulforhodamine B assay; format: functional; details: RXF 393, 48 h
CCRF-CEM = test: Cytotoxicity against human CCRF-CEM cells after 48 hrs by sulforhodamine B assay; format: functional
OVCAR-4 = test: Cytotoxicity against human OVCAR4 cells after 48 hrs by sulforhodamine B assay; format: functional; details: OVCAR-4, 48 h
NCI/ADR-RES = test: Cytotoxicity against human NCI/ADR-RES cells after 48 hrs by sulforhodamine B assay; format: functional
PC-3 = test: Cytotoxicity against human PC3 cells after 48 hrs by sulforhodamine B assay; format: functional; details: PC-3, 48 h
HCT-15 = test: Cytotoxicity against human HCT15 cells after 48 hrs by sulforhodamine B assay; format: functional; details: HCT-15, 48 h
[1] = Cytotoxicity against human EKVX cells after 48 hrs by sulforhodamine B assay; format: functional
HOP-92 = test: Cytotoxicity against human HOP92 cells after 48 hrs by sulforhodamine B assay; format: functional; details: HOP-92, 48 h
SF-268 = test: Cytotoxicity against human SF268 cells after 48 hrs by sulforhodamine B assay; format: functional; details: SF-268, 48 h
CAKI-1 = test: Cytotoxicity against human CAKI-1 cells after 48 hrs by sulforhodamine B assay; format: functional; details: CAKI-1, 48 h
MOLT-4 = test: Cytotoxicity against human MOLT4 cells after 48 hrs by sulforhodamine B assay; format: functional; details: MOLT-4, 48 h
HCT-116 = test: Cytotoxicity against human HCT116 cells after 48 hrs by sulforhodamine B assay; format: functional; details: HCT-116, 48 h
BT-549 = test: Cytotoxicity against human BT549 cells after 48 hrs by sulforhodamine B assay; format: functional; details: BT-549, 48 h
M14 = test: Cytotoxicity against human M14 cells after 48 hrs by sulforhodamine B assay; format: functional; details: M14, 48 h
Mus musculus = test: Toxicity in athymic nude mouse assessed as survival at 400 mg/kg, ip measured after 2 weeks; format: organism-based; parameters: dose 400 mg/kg, route intraperitoneal; details: in vivo, 336 h
NCI-H322M = test: Cytotoxicity against human NCI-H322M cells after 48 hrs by sulforhodamine B assay; format: functional
SF-295 = test: Cytotoxicity against human SF295 cells after 48 hrs by sulforhodamine B assay; format: functional; details: SF-295, 48 h
OVCAR-3 = test: Cytotoxicity against human OVCAR3 cells after 48 hrs by sulforhodamine B assay; format: functional; details: OVCAR-3, 48 h
U-251 = test: Cytotoxicity against human U251 cells after 48 hrs by sulforhodamine B assay; format: functional; details: U-251, 48 h
ACHN = test: Cytotoxicity against human ACHN cells after 48 hrs by sulforhodamine B assay; format: functional
HL-60(TB) = test: Cytotoxicity against human HL-60(TB) cells after 48 hrs by sulforhodamine B assay; format: functional; details: HL-60, 48 h
OVCAR-8 = test: Cytotoxicity against human OVCAR8 cells after 48 hrs by sulforhodamine B assay; format: functional; details: OVCAR-8, 48 h
RPMI-8226 = test: Cytotoxicity against human RPMI8226 cells after 48 hrs by sulforhodamine B assay; format: functional; details: RPMI-8226, 48 h

Row | SMILES | GI50 (HOP-62) [nM] | GI50 (IGROV-1) [nM] | GI50 (SNB-75) [nM] | GI50 (T47D) [nM] | GI50 (UACC-62) [nM] | GI50 (NCI-H460) [nM] | GI50 (KM12) [nM] | GI50 (TK-10) [nM] | GI50 (SR) [nM] | GI50 (DU-145) [nM] | GI50 (LOX IMVI) [nM] | GI50 (RXF 393) [nM] | GI50 (CCRF-CEM) [nM] | GI50 (OVCAR-4) [nM] | GI50 (NCI/ADR-RES) [nM] | GI50 (PC-3) [nM] | GI50 (HCT-15) [nM] | GI50 [1] [nM] | GI50 (HOP-92) [nM] | GI50 (SF-268) [nM] | further results
1 | CCOc1cccc(/C=N/NC(=O)c2ccccc2Nc2ccnc(C(F)(F)F)c2)c1O | 501 | 39.8 | 398 | 794 | 501 | 251 | 501 | 631 | 63.1 | 794 | 200 | 12600 | 251 | 251 | 631 | 200 | 251 | 251 | 158 | 794 | GI50 (CAKI-1): 251 nM; GI50 (MOLT-4): 126 nM; GI50 (HCT-116): 316 nM; GI50 (BT-549): 398 nM; GI50 (M14): 631 nM; Activity (Mus musculus): Non-toxic; GI50 (NCI-H322M): 398 nM; GI50 (SF-295): 501 nM; GI50 (OVCAR-3): 316 nM; GI50 (U-251): 398 nM; GI50 (ACHN): 316 nM; GI50 (HL-60(TB)): 251 nM; GI50 (OVCAR-8): 501 nM; GI50 (RPMI-8226): 251 nM
2 | CCOc1cccc(/C=N/NC(=O)Cc2ccc(Nc3ccnc(C(F)(F)F)c3)cc2)c1O | 2510 | 2510 | 12600 | 2510 | 1580 | 1580 | 3980 | 3980 | 316 | 2000 | 1580 | 3160 | 316 | 794 | 3980 | 2000 | 1000 | 3980 | 2000 | 1260 | GI50 (CAKI-1): 2510 nM; GI50 (MOLT-4): 501 nM; GI50 (HCT-116): 1260 nM; GI50 (BT-549): 2510 nM; GI50 (M14): 2000 nM; GI50 (NCI-H322M): 2510 nM; GI50 (SF-295): 3980 nM; GI50 (OVCAR-3): 398 nM; GI50 (U-251): 1580 nM; GI50 (ACHN): 1580 nM; GI50 (HL-60(TB)): 1000 nM; GI50 (OVCAR-8): 3160 nM; GI50 (RPMI-8226): 501 nM
3 | O=C(N/N=C/c1cc(Cl)ccc1O)c1ccccc1Nc1ccnc(C(F)(F)F)c1 | 251 | 316 | 316 | 794 | 398 | 316 | 631 | 501 | 316 | 316 | 251 | 398 | 79.4 | 251 | 398 | 631 | 158 | 200 | 501 | 251 | GI50 (CAKI-1): 398 nM; GI50 (MOLT-4): 200 nM; GI50 (HCT-116): 200 nM; GI50 (BT-549): 794 nM; GI50 (M14): 316 nM; GI50 (NCI-H322M): 398 nM; GI50 (SF-295): 398 nM; GI50 (OVCAR-3): 501 nM; GI50 (U-251): 316 nM; GI50 (ACHN): 316 nM; GI50 (HL-60(TB)): 316 nM; GI50 (OVCAR-8): 631 nM; GI50 (RPMI-8226): 158 nM
4 | CCOc1cccc(/C=N/NC(=O)c2cccc(Nc3ccnc(C(F)(F)F)c3)c2)c1O | 794 | 794 | 7940 | 631 | 631 | 1000 | 1260 | 1260 | 158 | 631 | 631 | 1000 | 251 | 631 | 3160 | 1000 | 2000 | 794 | 3160 | 631 | GI50 (CAKI-1): 1000 nM; GI50 (MOLT-4): 316 nM; GI50 (HCT-116): 398 nM; GI50 (BT-549): 1580 nM; GI50 (M14): 1260 nM; GI50 (NCI-H322M): 631 nM; GI50 (SF-295): 2000 nM; GI50 (OVCAR-3): 200 nM; GI50 (U-251): 1260 nM; GI50 (ACHN): 1000 nM; GI50 (HL-60(TB)): 251 nM; GI50 (OVCAR-8): 794 nM; GI50 (RPMI-8226): 2000 nM
